Data: ChEMBL document CHEMBL3886380, “Oxazole derivatives useful as modulators of FAAH” (2015)

Biological target: T1, Fatty-acid amide hydrolase 1 (Homo sapiens, UniProt O00519)
T1 sequence (O00519 whole entry): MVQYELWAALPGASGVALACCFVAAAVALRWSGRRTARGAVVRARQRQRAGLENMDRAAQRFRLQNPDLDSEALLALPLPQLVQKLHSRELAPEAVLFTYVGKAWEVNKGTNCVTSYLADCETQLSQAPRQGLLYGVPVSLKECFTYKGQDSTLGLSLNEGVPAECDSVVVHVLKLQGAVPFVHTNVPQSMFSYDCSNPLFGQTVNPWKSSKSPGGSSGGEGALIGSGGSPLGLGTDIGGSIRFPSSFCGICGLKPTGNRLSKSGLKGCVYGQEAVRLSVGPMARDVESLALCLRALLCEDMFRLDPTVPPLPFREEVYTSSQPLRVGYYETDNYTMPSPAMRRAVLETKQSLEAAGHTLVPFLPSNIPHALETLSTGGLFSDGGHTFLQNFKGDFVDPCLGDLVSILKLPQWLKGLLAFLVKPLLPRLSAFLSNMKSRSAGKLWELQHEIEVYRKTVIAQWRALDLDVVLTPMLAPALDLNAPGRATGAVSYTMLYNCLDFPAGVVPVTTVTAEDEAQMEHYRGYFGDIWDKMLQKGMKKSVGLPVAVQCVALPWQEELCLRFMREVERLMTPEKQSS
Test: FAAH Assay: Enzyme activity was demonstrated in a radioenzymatic test based on measuring the product of hydrolysis (ethanolamine [3]H) of anandamide [ethanolamine 1-^3H] (American Radiolabeled Chemicals; 1 mCi/ml) with FAAH (Life Sciences (1995), 56, 1999-2005 and Journal of Pharmacology and Experimented Therapeutics (1997), 283, 729-734), Analytical. Biochemistry (2003), 318, 270-5. In …

IC50 [µM]	SMILES
3.09	CN1CCN(CCOC(=O)N2CCC(c3nc(-c4ccc([S+](C)[O-])cc4)c(Sc4ccc(Cl)cn4)o3)CC2)CC1 (configuration not stated)
9.15	C[N+]1(C)CCN(c2ccc(-c3nc(C4CCOCC4)oc3Sc3ccc(Cl)cc3)cn2)CC1
